{"source": "patent US5076973A", "about": "“Synthesis of dolastatin 3” (Arizona Board of Regents, priority 1988, dated 1991)", "assay": "Stability in solution and in storage", "format": "physicochemical", "data": [{"smiles": "CC(C)C[C@@H]1NC(=O)[C@@H]2CCCN2C(=O)[C@H](C(C)C)NC(=O)c2csc(n2)CNC(=O)c2csc(n2)[C@H](CCC(N)=O)NC1=O", "note": "[dolastatin 3, Cyclo-[L-Val-L-Pro-L-Leu-L-(gln)Thz-(gly)Thz]]", "values": [{"measurement": "Stability / decomposition in solution", "setting": "in solution, especially in chloroform", "value": "tendency to undergo decomposition in solution"}, {"measurement": "Stability in storage", "setting": "storage of isolated natural sample", "value": "decomposed in storage"}]}]}
